Laboratory results: PMC4589371, “Molecular Binding Mechanism of TtgR Repressor to Antibiotics and Antimicrobials” (PLoS ONE, 2015)

Legend:
TtgR (TtgR^WT) [1] = biological target: TtgR (TtgR^WT) (Pseudomonas putida, UniProt Q9AIU0, N110A); test: biochemical
From the text: (§1) isothermal titration calorimetry, one set of sites on TtgR (TtgR^WT)

TtgR (TtgR^WT) [2] = biological target: TtgR (TtgR^WT) (Pseudomonas putida, UniProt Q9AIU0, E78A); test: biochemical
From the text: as §1

TtgR (TtgR^WT) [3] = biological target: TtgR (TtgR^WT) (Pseudomonas putida, UniProt Q9AIU0, H114A); test: biochemical
From the text: as §1

TtgR (TtgR^WT) [4] = biological target: T1, TtgR (TtgR^WT) (Pseudomonas putida, UniProt Q9AIU0); test: isothermal titration calorimetry, one set of sites; format: binding
T1 construct: homodimer

[5] = test system: TtgR N110A (Pseudomonas putida DOT-T1E); test: EMSA; details: 5 uM phloretin; EMSA: 10 mM Tris-HCl pH 7.0, 250 mM NaCl, 10 mM Mg acetate, 10 mM KCl, 5% glycerol, 0.1 mM EDTA, 5 mM DTT, 20 ug/ml poly(dI-dC), 200 ug/ml BSA; 10 min at 30 C …
[6] = test system: TtgR H114A (Pseudomonas putida DOT-T1E); test: EMSA; details: 5 uM naringenin; EMSA: 10 mM Tris-HCl pH 7.0, 250 mM NaCl, 10 mM Mg acetate, 10 mM KCl, 5% glycerol, 0.1 mM EDTA, 5 mM DTT, 20 ug/ml poly(dI-dC), 200 ug/ml BSA; 10 min at 30 C …
[7] = test system: TtgR E78A (Pseudomonas putida DOT-T1E); test: EMSA; details: 5 uM naringenin; EMSA: 10 mM Tris-HCl pH 7.0, 250 mM NaCl, 10 mM Mg acetate, 10 mM KCl, 5% glycerol, 0.1 mM EDTA, 5 mM DTT, 20 ug/ml poly(dI-dC), 200 ug/ml BSA; 10 min at 30 C …

Compound	Kd (TtgR (TtgR^WT) [1]) [µM]	Kd (TtgR (TtgR^WT) [2]) [µM]	Kd (TtgR (TtgR^WT) [3]) [µM]	Kd (TtgR (TtgR^WT) [4]) [µM]	binding signal (% DNA dissociated) [5]	binding signal (% DNA released) [6]	binding signal (% DNA released) [7]
O=C(N[C@H](CO)[C@H](O)c1ccc([N+](=O)[O-])cc1)C(Cl)Cl [chloramphenicol]	15.6 ± 2	18.5 ± 1	8.5 ± 0.5	5.6 ± 0.4	–	–	–
O=C(CCc1ccc(O)cc1)c1c(O)cc(O)cc1O [phloretin]	1 ± 0.1	0.7 ± 0.1	1.3 ± 0.1	1.5 ± 0.2	–	–	–
ttgABC-ttgR intergenic region (operator), 189 bp	–	–	–	–	66	30	30
